# Measured values published in US11371019B2, “Efficient generation of human red blood cells via enriching peripheral blood erythroid progenitors” (Whitehead Institute for Biomedical Research, priority 2016, dated 2022).
# Assays:
# [1] = test system: purified mouse TGFBR3^lo BFU-E cells; assay: total red cell production from purified BFU-E cells in SFELE medium; assay type: cell-based; details: culture system; FIG. 13
# Description: FIG. 13. A chart showing the treatment of purified mouse TGFBR3^lo BFU-E cells with DMSO, DEX or TGFβ signaling inhibitor galunisertib. The cells were seeded in SFELE medium supplemented with the test agent.
# (§1) For new drug discovery or drug repurposing for treating blood diseases, compounds of interest were added into cell culture after progenitor purification. The efficacy of drugs is evaluated based on total red blood cell production, numbers of erythroid progenitor BFU-E and CFU-E (quantified by colony forming assay) and/or level of fetal globin expression.
# [2] = test system: TGFBR3^lo mouse BFU-E cells; assay: colony forming assay for large BFU-E colony numbers; assay type: cell-based; details: culture system; FIG. 12
# Description: FIG. 12. A chart showing an exemplary colony forming assays were conducted to determine large BFU-E colony numbers from 100 TGFBR3^lo mouse BFU-E cells cultured under the indicated conditions. Colony forming assays were performed at indicated time points.
# as §1
compound,measurement,setting,value
Cc1cccc(-c2nn3c(c2-c2ccnc4ccc(C(N)=O)cc24)CCC3)n1 [galunisertib],total red cell production,[1],increase
same,BFU-E numbers,[2],increase BFU-E numbers
